From patent publication US10597388B2, “Pyridazinone herbicides” (FMC CORPORATION, priority 2014, dated 2020)

Columns and labels:
Assay in all cases: Test D controlled growth environment herbicide test, pre- and postemergence
Assay type in all cases: in vivo
[1] = test system: barley, winter (winter barley, Hordeum vulgare)
In short: (§1)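 Rating is visual, 0–100 scale (100 = complete control), made against untreated plants 14–21 d after treatment in controlled growth conditions. Postemergence sprays went onto 1- to 4-leaf plants in peat medium; preemergence sprays onto silt loam after sowing; formulation included a surfactant.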

[2] = test system: blackgrass (Alopecurus myosuroides)
In short: as §1

[3] = test system: bluegrass (annual bluegrass, Poa annua)
In short: as §1

[4] = test system: bromegrass, downy (downy bromegrass, Bromus tectorum)
In short: as §1

[5] = test system: buckwheat, wild (wild buckwheat, Polygonum convolvulus)
In short: as §1

[6] = test system: canarygrass (Phalaris minor)
In short: as §1

[7] = test system: foxtail, green (green foxtail, Setaria viridis)
In short: as §1

[8] = test system: galium (catchweed bedstraw, Galium aparine)
In short: as §1

[9] = test system: lambsquarters (Chenopodium album)
In short: as §1

[10] = test system: pigweed (Amaranthus retroflexus)
In short: as §1

[11] = test system: ryegrass, Italian (Italian ryegrass, Lolium multiflorum)
In short: as §1

[12] = test system: wheat, spring (spring wheat, Triticum aestivum)
In short: as §1

[13] = test system: windgrass (Apera spica-venti)
In short: as §1

[14] = Postemergence, 31 g ai/ha, scale 0 to 100 (0 no effect, 100 complete control)
[15] = Postemergence, 125 g ai/ha, visual rating on scale 0 (no effect) to 100 (complete control), 14 to 21 d
[16] = Postemergence, 250 g ai/ha, scale 0 to 100 (0 no effect, 100 complete control)
[17] = Preemergence, 62 g ai/ha, scale 0 to 100 (0 no effect, 100 complete control)
[18] = Preemergence, 125 g ai/ha, scale 0 to 100 (0 no effect, 100 complete control)
[19] = Preemergence, 250 g ai/ha, scale 0 to 100, 0 no effect, 100 complete control
[20] = postemergence, 62 g ai/ha, scale 0 to 100, 0 no effect, 100 complete control

Cc1ccc2sc(Br)c(-c3c(O)c(C)nn(C)c3=O)c2c1 [Compound 79]
Barley, Winter plant response rating [1, 14]: 0 | Plant response rating, Barley, Winter [1, 15]: 0 | Plant response rating, Barley, Winter [1, 16]: 5 | Plant response rating (scale of 0 to 100), Barley, Winter ([1]; Preemergence, 31 g ai/ha): 0 | Plant response rating, Barley, Winter [1, 17]: 0 | Plant response rating, Barley, Winter [1, 18]: 0 | Plant response rating, Barley, Winter [1, 19]: 10 | Plant response rating, Barley, Winter [1, 20]: 0 | Blackgrass plant response rating [2, 14]: 10 | Plant response rating, Blackgrass [2, 15]: 40 | Plant response rating, Blackgrass [2, 16]: 50 | Plant response rating (scale of 0 to 100), Blackgrass ([2]; Preemergence, 31 g ai/ha): 20 | Plant response rating, Blackgrass [2, 17]: 45 | Plant response rating, Blackgrass [2, 18]: 55 | Plant response rating, Blackgrass [2, 19]: 60 | Plant response rating, Blackgrass [2, 20]: 20 | Bluegrass plant response rating [3, 14]: 5 | Plant response rating, Bluegrass [3, 15]: 10 | Plant response rating, Bluegrass [3, 16]: 15 | Plant response rating (scale of 0 to 100), Bluegrass ([3]; Preemergence, 31 g ai/ha): 10 | Plant response rating, Bluegrass [3, 17]: 10 | Plant response rating, Bluegrass [3, 18]: 25 | Plant response rating, Bluegrass [3, 19]: 35 | Plant response rating, Bluegrass [3, 20]: 10 | Bromegrass, Downy plant response rating [4, 14]: 5 | Plant response rating, Bromegrass, Downy [4, 15]: 10 | Plant response rating, Bromegrass, Downy [4, 16]: 20 | Plant response rating (scale of 0 to 100), Bromegrass, Downy ([4]; Preemergence, 31 g ai/ha): 35 | Plant response rating, Bromegrass, Downy [4, 17]: 35 | Plant response rating, Bromegrass, Downy [4, 18]: 50 | Plant response rating, Bromegrass, Downy [4, 19]: 60 | Plant response rating, Bromegrass, Downy [4, 20]: 5 | Buckwheat, Wild plant response rating [5, 14]: 70 | Plant response rating, Buckwheat, Wild [5, 15]: 100 | Plant response rating, Buckwheat, Wild [5, 16]: 100 | Plant response rating (scale of 0 to 100), Buckwheat, Wild ([5]; Preemergence, 31 g ai/ha): 0 | Plant response rating, Buckwheat, Wild [5, 17]: 90 | Plant response rating, Buckwheat, Wild [5, 18]: 25 | Plant response rating, Buckwheat, Wild [5, 19]: 100 | Plant response rating, Buckwheat, Wild [5, 20]: 100 | Canarygrass plant response rating [6, 14]: 5 | Plant response rating, Canarygrass [6, 15]: 40 | Plant response rating, Canarygrass [6, 16]: 45 | Plant response rating (scale of 0 to 100), Canarygrass ([6]; Preemergence, 31 g ai/ha): 45 | Plant response rating, Canarygrass [6, 17]: 60 | Plant response rating, Canarygrass [6, 18]: 75 | Plant response rating, Canarygrass [6, 19]: 85 | Plant response rating, Canarygrass [6, 20]: 20 | Foxtail, Green plant response rating [7, 14]: 20 | Plant response rating, Foxtail, Green [7, 15]: 75 | Plant response rating, Foxtail, Green [7, 16]: 80 | Plant response rating (scale of 0 to 100), Foxtail, Green ([7]; Preemergence, 31 g ai/ha): 55 | Plant response rating, Foxtail, Green [7, 17]: 60 | Plant response rating, Foxtail, Green [7, 18]: 65 | Plant response rating, Foxtail, Green [7, 19]: 95 | Plant response rating, Foxtail, Green [7, 20]: 70 | Galium plant response rating [8, 14]: 95 | Plant response rating, Galium [8, 15]: 100 | Plant response rating, Galium [8, 16]: 100 | Plant response rating (scale of 0 to 100), Galium ([8]; Preemergence, 31 g ai/ha): 80 | Plant response rating, Galium [8, 17]: 90 | Plant response rating, Galium [8, 18]: 100 | Plant response rating, Galium [8, 19]: 100 | Plant response rating, Galium [8, 20]: 100 | Lambsquarters plant response rating [9, 14]: 85 | Plant response rating, Lambsquarters [9, 15]: 90 | Plant response rating, Lambsquarters [9, 16]: 100 | Plant response rating (scale of 0 to 100), Lambsquarters ([9]; Preemergence, 31 g ai/ha): 100 | Plant response rating, Lambsquarters [9, 17]: 100 | Plant response rating, Lambsquarters [9, 18]: 100 | Plant response rating, Lambsquarters [9, 19]: 100 | Plant response rating, Lambsquarters [9, 20]: 80 | Pigweed plant response rating [10, 14]: 100 | Plant response rating, Pigweed [10, 15]: 100 | Plant response rating, Pigweed [10, 16]: 100 | Plant response rating (scale of 0 to 100), Pigweed ([10]; Preemergence, 31 g ai/ha): 45 | Plant response rating, Pigweed [10, 17]: 100 | Plant response rating, Pigweed [10, 18]: 100 | Plant response rating, Pigweed [10, 19]: 100 | Plant response rating, Pigweed [10, 20]: 100 | Ryegrass, Italian plant response rating [11, 14]: 70 | Plant response rating, Ryegrass, Italian [11, 15]: 85 | Plant response rating, Ryegrass, Italian [11, 16]: 90 | Plant response rating (scale of 0 to 100), Ryegrass, Italian ([11]; Preemergence, 31 g ai/ha): 80 | Plant response rating, Ryegrass, Italian [11, 17]: 85 | Plant response rating, Ryegrass, Italian [11, 18]: 90 | Plant response rating, Ryegrass, Italian [11, 19]: 100 | Plant response rating, Ryegrass, Italian [11, 20]: 75 | Wheat, Spring plant response rating [12, 14]: 0 | Plant response rating, Wheat, Spring [12, 15]: 0 | Plant response rating, Wheat, Spring [12, 16]: 5 | Plant response rating (scale of 0 to 100), Wheat, Spring ([12]; Preemergence, 31 g ai/ha): 0 | Plant response rating, Wheat, Spring [12, 17]: 0 | Plant response rating, Wheat, Spring [12, 18]: 0 | Plant response rating, Wheat, Spring [12, 19]: 0 | Plant response rating, Wheat, Spring [12, 20]: 0 | Windgrass plant response rating [13, 14]: 15 | Plant response rating, Windgrass [13, 15]: 35 | Plant response rating, Windgrass [13, 16]: 65 | Plant response rating (scale of 0 to 100), Windgrass ([13]; Preemergence, 31 g ai/ha): 25 | Plant response rating, Windgrass [13, 17]: 40 | Plant response rating, Windgrass [13, 18]: 50 | Plant response rating, Windgrass [13, 19]: 80 | Plant response rating, Windgrass [13, 20]: 20
